# Laboratory results as given in patent publication US20070010671A1, “Novel quinazoline derivatives and methods of treatment related to the use thereof” (priority 2003, published 2007).
# Target: MCH receptor (Homo sapiens, UniProt Q99705)
# Test: High throughput functional screening FLIPR/FDSS6000: inhibition of MCH-evoked intracellular Ca2+ changes
# Type: cell-based
# Settings: class by percent of control at 10^-7 M or IC50
# Outline: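 Antagonism was measured as inhibition of calcium responses to 50 nM MCH, monitored 290 s at ex 488/em 530 nm on FLIPR or FDSS6000. Beforehand, cells bearing a constitutively active MCH receptor received Fluo4-AM (4 μM, 1 h, 37 °C) with probenecid, and test compound for 3 min.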
row,Compound,class
1,Cc1cccc(NC(=S)NC[C@H]2CC[C@@H](Nc3nc(N(C)C)c4ccccc4n3)CC2)c1 [compound 605],3 (Class 3: The value of percent of control at 10^−7 M was more than 60% or the value of IC50 was more than 200 nM.)
2,CN(C)c1nc(N[C@H]2CC[C@@H](NC(=S)NCc3ccccc3F)CC2)nc2ccccc12 [compound 300],2 (Class 2: The value of percent of control at 10^−7 M was from 40% to 60% or the value of IC50 was from 50 nM to 200 nM.)
3,"N-[(cis-4-{[4-(dimethylamino)quinazolin-2-yl]amino}cyclohexyl)methyl]-N′-(2,4,6-tribromophenyl)urea [compound 475]",1 (Class 1: The value of percent of control at 10^−7 M was less than 40% or the value of IC50 was less than 50 nM.)
4,"CN(C)c1nc(N[C@H]2CC[C@@H](CNC(=S)Nc3c(F)cc(Br)cc3Br)CC2)nc2ccccc12 [compound 781, N-(2,4-dibromo-6-fluorophenyl)-N′-[(cis-4-{[4-(dimethylamino)quinazolin-2-yl]amino}cyclohexyl)methyl]thiourea]",2 (Class 2: The value of percent of control at 10^−7 M was from 40% to 60% or the value of IC50 was from 50 nM to 200 nM.)
5,CN(C)c1nc(N[C@H]2CC[C@@H](CNC(=S)NC34CC5CC(CC(C5)C3)C4)CC2)nc2ccccc12 (relative stereo) [compound 624],3 (Class 3: The value of percent of control at 10^−7 M was more than 60% or the value of IC50 was more than 200 nM.)
6,"CN(C)c1nc(N[C@H]2CC[C@@H](CNC(=O)NCc3ccc(Cl)cc3Cl)CC2)nc2ccccc12 [compound 478, N-(2,4-dichlorobenzyl)-N′-[(cis-4-{[4-(dimethylamino)quinazolin-2-yl]amino}cyclohexyl)methyl]urea]",2 (Class 2: The value of percent of control at 10^−7 M was from 40% to 60% or the value of IC50 was from 50 nM to 200 nM.)
7,"CN(C)c1nc(N[C@H]2CC[C@@H](NC(=S)NC3CC3)CC2)nc2ccccc12 [compound 288, N-cyclopropyl-N′-(cis-4-{[4-(dimethylamino)quinazolin-2-yl]amino}cyclohexyl)thiourea]",2 (Class 2: The value of percent of control at 10^−7 M was from 40% to 60% or the value of IC50 was from 50 nM to 200 nM.)
8,CN(C)c1nc(N[C@H]2CC[C@@H](NC(=S)NCCN3CCCCC3)CC2)nc2ccccc12 [compound 395],3 (Class 3: The value of percent of control at 10^−7 M was more than 60% or the value of IC50 was more than 200 nM.)
9,CCCCc1ccc(NC(=O)N[C@H]2CC[C@@H](Nc3nc(N(C)C)c4ccccc4n3)CC2)c(C)c1 [compound 346],1 (Class 1: The value of percent of control at 10^−7 M was less than 40% or the value of IC50 was less than 50 nM.)
10,COc1ccc(Cl)cc1NC(=S)N[C@H]1CC[C@@H](Nc2nc(N(C)C)c3ccccc3n2)CC1 [compound 282],3 (Class 3: The value of percent of control at 10^−7 M was more than 60% or the value of IC50 was more than 200 nM.)
11,"Cc1cccc(NC(=S)N[C@H]2CC[C@@H](Nc3nc(N(C)C)c4ccccc4n3)CC2)c1C [compound 359, N-(cis-4-{[4-(dimethylamino)quinazolin-2-yl]amino}cyclohexyl)-N′-(2,3-dimethylphenyl)thiourea]",1 (Class 1: The value of percent of control at 10^−7 M was less than 40% or the value of IC50 was less than 50 nM.)
12,Cc1cccc(C(C)C)c1NC(=O)NC[C@H]1CC[C@@H](Nc2nc(N(C)C)c3ccccc3n2)CC1 [compound 501],1 (Class 1: The value of percent of control at 10^−7 M was less than 40% or the value of IC50 was less than 50 nM.)
13,"CC(C)c1cc(Br)c(NC(=O)N[C@H]2CC[C@@H](Nc3nc(N(C)C)c4ccccc4n3)CC2)c(Br)c1 [compound 339, N-(2,6-dibromo-4-isopropylphenyl)-N′-(cis-4-{[4-(dimethylamino)quinazolin-2-yl]amino}cyclohexyl)urea]",1 (Class 1: The value of percent of control at 10^−7 M was less than 40% or the value of IC50 was less than 50 nM.)
14,"CCc1cccc(C)c1NC(=O)NC[C@H]1CC[C@@H](Nc2nc(N(C)C)c3ccccc3n2)CC1 [compound 434, N-[(cis-4-{[4-(dimethylamino)quinazolin-2-yl]amino}cyclohexyl)methyl]-N′-(2-ethyl-6-methylphenyl)urea]",1 (Class 1: The value of percent of control at 10^−7 M was less than 40% or the value of IC50 was less than 50 nM.)
15,CN(C)c1nc(N[C@H]2CC[C@@H](CNC(=S)NCc3ccc(Cl)cc3Cl)CC2)nc2ccccc12 [compound 718],2 (Class 2: The value of percent of control at 10^−7 M was from 40% to 60% or the value of IC50 was from 50 nM to 200 nM.)
16,COC(=O)c1ccc(NC(=O)NC[C@H]2CC[C@@H](Nc3nc(N(C)C)c4ccccc4n3)CC2)cc1 [compound 574],3 (Class 3: The value of percent of control at 10^−7 M was more than 60% or the value of IC50 was more than 200 nM.)

# Same assay, conditions: class by percent of control at 10^-7 M or by IC50; read-out: class
row,IC50,Compound
1,< 50 nM,"Cc1cccc(NC(=O)N[C@H]2CC[C@@H](Nc3nc(N(C)C)c4ccccc4n3)CC2)c1C [compound 27, N-(cis-4-{[4-(dimethylamino)quinazolin-2-yl]amino}cyclohexyl)-N′-(2,3-dimethylphenyl)urea]"
2,> 200 nM,CN(C)c1nc(N[C@H]2CC[C@@H](CNC(=S)Nc3ccc(F)cc3Br)CC2)nc2ccccc12 [compound 803]
3,50 to 200 nM,"CN(C)c1nc(N[C@H]2CC[C@@H](NC(=O)NC3c4ccccc4-c4ccccc43)CC2)nc2ccccc12 [compound 841, N-(cis-4-{[4-(dimethylamino)quinazolin-2-yl]amino}cyclonexyl)-N′-9H-fluoren-9-ylurea]"
4,> 200 nM,CCOC(=O)CNC(=O)N[C@H]1CC[C@@H](Nc2nc(N(C)C)c3ccccc3n2)CC1 [compound 28]
5,50 to 200 nM,Cc1onc(-c2ccccc2)c1NC(=S)NC[C@H]1CC[C@@H](Nc2nc(N(C)C)c3ccccc3n2)CC1 [compound 819]
6,> 200 nM,CN(C)c1nc(N[C@H]2CC[C@@H](CNC(=S)Nc3ccc(-n4cccn4)cc3)CC2)nc2ccccc12 [compound 814]
7,< 50 nM,"CN(C)c1nc(N[C@H]2CC[C@@H](NC(=S)Nc3cccc4ccccc34)CC2)nc2ccccc12 [compound 187, N-(cis-4-{[4-(dimethylamino)quinazolin-2-yl]amino}cyclohexyl)-N′-1-naphthylthiourea]"
8,> 200 nM,CN(C)c1nc(N[C@H]2CC[C@@H](CNC(=S)NCCN3CCOCC3)CC2)nc2ccccc12 [compound 808]
9,> 200 nM,COCCOC(=O)NC[C@H]1CC[C@@H](Nc2nc(N(C)C)c3ccccc3n2)CC1 [compound 872]
10,50 to 200 nM,"COc1cccc(NC(=O)N[C@H]2CC[C@@H](Nc3nc(N(C)C)c4ccccc4n3)CC2)c1 [compound 46, N-(cis-4-{[4-(dimethylamino)quinazolin-2-yl]amino}cyclohexyl)-N′-(3-methoxyphenyl)urea]"
11,> 200 nM,CN(C)c1nc(N[C@H]2CC[C@@H](NC(=O)Nc3ccc(SC(F)(F)F)cc3)CC2)nc2ccccc12 [compound 137]
12,> 200 nM,Cc1ccc(Cl)c(NC(=O)N[C@H]2CC[C@@H](Nc3nc(N(C)C)c4ccccc4n3)CC2)c1 [compound 87]
13,> 200 nM,Cc1ccc(Cl)cc1NC(=O)N[C@H]1CC[C@@H](Nc2nc(N(C)C)c3ccccc3n2)CC1 [compound 836]
14,> 200 nM,CN(C)c1nc(N[C@H]2CC[C@@H](NC(=O)Nc3c(Br)cc(F)cc3Br)CC2)nc2ccccc12 [compound 83]
15,> 200 nM,CN(C)c1nc(N[C@H]2CC[C@@H](NC(=O)Nc3ccccc3OC(F)(F)F)CC2)nc2ccccc12 [compound 152]
16,50 to 200 nM,"Cc1cccc(NC(=O)N[C@H]2CC[C@@H](Nc3nc(N(C)C)c4ccccc4n3)CC2)c1 [compound 59, N-(cis-4-{[4-(dimethylamino)quinazolin-2-yl]amino}cyclohexyl)-N′-(3-methylphenyl)urea]"
17,> 200 nM,CN(C)c1nc(N[C@H]2CC[C@@H](NC(=O)Nc3ccc(Cc4ccccc4)cc3)CC2)nc2ccccc12 [compound 140]
18,> 200 nM,CN(C)c1nc(N[C@H]2CC[C@@H](NC(=S)NCc3ccccc3)CC2)nc2ccccc12 [compound 156]

# Same assay, conditions: class by percent of control at 10^−7 M or by IC50; read-out: class
row,IC50,Compound
1,< 50 nM,"COc1cc(OC)cc(Oc2ncccc2C(=O)N[C@H]2CC[C@@H](Nc3nc(N(C)C)c4ccccc4n3)CC2)c1 [Example 1039, 2-(3,5-dimethoxyphenoxy)-N-(cis-4-{[4-(dimethylamino)quinazolin-2-yl]amino}cyclohexyl)nicotinamide]"
2,> 200 nM,"COc1ccc(CN[C@@H]2CC[C@H](Nc3nc(N(C)C)c4ccccc4n3)C2)c(OC)c1 [Example 1044, N2-{(1S,3R)-3-[(2,4-dimethoxybenzyl)amino]cyclopentyl}-N4,N4-dimethylquinazoline-2,4-diamine]"
3,50 to 200 nM,"CN(C)c1nc(N[C@H]2CC[C@@H](CNC(=O)Nc3ccccc3Cl)CC2)nc2ccccc12 [Example 1021, N-(2-chlorophenyl)-N′-[(cis-4-{[4-(dimethylamino)quinazolin-2-yl]amino}cyclohexyl)methyl]urea]"
4,< 50 nM,"CN(C)c1nc(N[C@H]2CC[C@@H](NC(=O)C(O)c3cccc(C(F)(F)F)c3)CC2)nc2ccccc12 (relative stereo) [Example 1112, N-(cis-4-{[4-(dimethylamino)quinazolin-2-yl]amino}cyclohexyl)-2-hydroxy-2-[3-(trifluoromethyl)phenyl]acetamide]"
5,< 50 nM,"CN(C)c1nc(N[C@H]2CC[C@@H](NC(=O)CNc3ccccc3)CC2)nc2ccccc12 [Example 1085, N-(cis-4-{[4-(dimethylamino)quinazolin-2-yl]amino}cyclohexyl)-N2-phenylglycinamide]"
6,50 to 200 nM,"CN(C)c1nc(N[C@H]2CC[C@@H](NC(=O)c3ccc(Oc4ccc(F)c(Cl)c4)nc3)CC2)nc2ccccc12 [Example 1070, 6-(3-chloro-4-fluorophenoxy)-N-(cis-4-{[4-(dimethylamino)quinazolin-2-yl]amino}cyclohexyl)nicotinamide]"
